Assay results taken from ChEMBL document CHEMBL6182930, “Discovery of TBK1Molecular Glue Degraders as a Potential Strategy for the Treatment of Autosomal Dominant Polycystic Kidney Disease (ADPKD)” (J Med Chem, 2025).
The source made the active and inactive calls. No cut-off for these calls is given here.

The compounds below were run on MDCK (assay: Inhibition of cystogenesis in forskolin-stimulated MDCK cells assessed as reduction in cyst growth at 100 nM administrated for 8 days starting from day 4 to day 12 by imaging analysis). Details: Canis lupus familiaris, time 8.0 day.
Type: functional, cell-based

Row | SMILES | inhibition
1 | CC(=O)N1CCN(Cc2cccc(Nc3ncc4ccn(CCCNC(=O)C5CCC5)c4n3)c2)CC1 | inactive

Each compound was assayed against T1, E3 ubiquitin-protein ligase RNF126/Serine/threonine-protein kinase TBK1 (Homo sapiens, UniProt Q9UHD2+Q9BV68) (assay: Molecular glue activity at RNF126/TBK1 in HEK293T cells assessed as induction of TBK1 degradation at 1 uM incubated for 16 hrs by Western blot analysis). Details: not given.
Type: cell-based

T1 sequence (Q9BV68 2-311 partner limits assumed, one chain of several): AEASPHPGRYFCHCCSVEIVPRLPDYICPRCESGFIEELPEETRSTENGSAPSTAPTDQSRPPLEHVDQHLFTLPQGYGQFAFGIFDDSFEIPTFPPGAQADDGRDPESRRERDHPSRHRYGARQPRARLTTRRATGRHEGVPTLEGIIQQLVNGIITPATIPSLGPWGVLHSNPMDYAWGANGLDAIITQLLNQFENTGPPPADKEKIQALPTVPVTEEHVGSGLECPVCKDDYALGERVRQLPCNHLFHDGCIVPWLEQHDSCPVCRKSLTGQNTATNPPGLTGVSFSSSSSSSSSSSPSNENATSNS

Row | SMILES | Activity
2 | COc1ccc(C(=O)/C=C/C(=O)N2CCN(C)CC2)cc1 | inactive
3 | COc1ccc(C(=O)/C=C/C(=O)N2CCN(Cc3cccc(Nc4ncc5ccn(CCCNC(=O)C6CCC6)c5n4)c3)CC2)cc1 | Active
4 | COc1ccc(C(=O)/C=C/C(=O)N2CCN(Cc3ccc(Nc4ncc5ccn(CCCNC(=O)C6CCC6)c5n4)cc3)CC2)cc1 | Active
5 | COc1ccc(C(=O)/C(C#N)=C/C(=O)N2CCN(Cc3cccc(Nc4ncc5ccn(CCCNC(=O)C6CCC6)c5n4)c3)CC2)cc1 | inactive
6 | COc1ccc(C(=O)CCC(=O)N2CCN(CC3CCN(Cc4cccc(Nc5ncc6ccn(CCCNC(=O)C7CCC7)c6n5)c4)CC3)CC2)cc1 | inactive
7 | COc1ccc(C(=O)/C=C(\C#N)C(=O)N2CCN(Cc3cccc(Nc4ncc5ccn(CCCNC(=O)C6CCC6)c5n4)c3)CC2)cc1 | inactive

These compounds were tested against T1, E3 ubiquitin-protein ligase RNF126/Serine/threonine-protein kinase TBK1 (assay: Molecular glue activity at RNF126/TBK1 in human A549 cells assessed as induction of TBK1 degradation at 1 uM incubated for 16 hrs by Western blot analysis). Details: not given.
Type: cell-based

Row | SMILES | Activity
8 | COc1ccc(C(=O)/C=C/C(=O)N2CCN(C)CC2)cc1 | inactive
9 | COc1ccc(C(=O)/C=C/C(=O)N2CCN(Cc3cccc(Nc4ncc5ccn(CCCNC(=O)C6CCC6)c5n4)c3)CC2)cc1 | Active
10 | COc1ccc(C(=O)/C=C/C(=O)N2CCN(Cc3ccc(Nc4ncc5ccn(CCCNC(=O)C6CCC6)c5n4)cc3)CC2)cc1 | Active
11 | COc1ccc(C(=O)/C(C#N)=C/C(=O)N2CCN(Cc3cccc(Nc4ncc5ccn(CCCNC(=O)C6CCC6)c5n4)c3)CC2)cc1 | inactive
12 | COc1ccc(C(=O)CCC(=O)N2CCN(CC3CCN(Cc4cccc(Nc5ncc6ccn(CCCNC(=O)C7CCC7)c6n5)c4)CC3)CC2)cc1 | inactive
13 | COc1ccc(C(=O)/C=C(\C#N)C(=O)N2CCN(Cc3cccc(Nc4ncc5ccn(CCCNC(=O)C6CCC6)c5n4)c3)CC2)cc1 | inactive

What follows are compounds tested against Protein cereblon/Serine/threonine-protein kinase TBK1 (Homo sapiens) (UniProt Q9UHD2+Q96SW2) (assay: PROTAC activity at CRBN/TBK1 in human A549 cells assessed as induction of TBK1 degradation at 1 to 10 uM incubated for 16 hrs by Western blot analysis). Details: dose 1-10 µM.
Type: cell-based

Chain of Protein cereblon/Serine/threonine-protein kinase TBK1 (Homo sapiens) (Q96SW2 whole entry, looked up, one chain of several): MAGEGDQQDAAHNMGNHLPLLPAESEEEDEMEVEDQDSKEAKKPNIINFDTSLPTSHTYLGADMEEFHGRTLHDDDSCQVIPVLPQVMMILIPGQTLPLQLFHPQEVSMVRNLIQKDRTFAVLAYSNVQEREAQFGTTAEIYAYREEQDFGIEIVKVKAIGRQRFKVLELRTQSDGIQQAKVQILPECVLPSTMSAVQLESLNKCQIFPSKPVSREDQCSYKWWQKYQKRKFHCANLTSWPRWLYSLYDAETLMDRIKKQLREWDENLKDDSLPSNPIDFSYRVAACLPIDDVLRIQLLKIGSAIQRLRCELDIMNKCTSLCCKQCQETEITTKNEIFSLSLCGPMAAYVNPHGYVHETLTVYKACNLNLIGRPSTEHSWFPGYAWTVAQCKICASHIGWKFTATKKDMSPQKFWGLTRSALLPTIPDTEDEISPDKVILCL

Row | SMILES | Activity
14 | O=C1CCC(N2C(=O)c3cccc(NCCCCCCCCCC(=O)N4CCN(Cc5cccc(Nc6ncc7ccn(CCCNC(=O)C8CCC8)c7n6)c5)CC4)c3C2=O)C(=O)N1 (stereo unspecified) | inactive
15 | Cc1ncsc1-c1ccc(CNC(=O)[C@H]2C[C@H](O)CN2C(=O)[C@@H](NC(=O)COCCOCCOCC(=O)N2CCN(Cc3cccc(Nc4ncc5ccn(CCCNC(=O)C6CCC6)c5n4)c3)CC2)C(C)(C)C)cc1 | inactive
16 | O=C1CCC(N2C(=O)c3cccc(NCCCC(=O)N4CCN(Cc5cccc(Nc6ncc7ccn(CCCNC(=O)C8CCC8)c7n6)c5)CC4)c3C2=O)C(=O)N1 (stereo unspecified) | Active; Compound Exhibited Only Weak Degradation Compared To Control 3I
17 | Cc1ncsc1-c1ccc(CNC(=O)[C@@H]2C[C@@H](O)CN2C(=O)[C@H](NC(=O)CCCCCCCCC(=O)N2CCN(Cc3cccc(Nc4ncc5ccn(CCCNC(=O)C6CCC6)c5n4)c3)CC2)C(C)(C)C)cc1 | inactive
18 | O=C1CCC(N2C(=O)c3ccc(OCCCCCCCCCCCC(=O)N4CCN(Cc5cccc(Nc6ncc7ccn(CCCNC(=O)C8CCC8)c7n6)c5)CC4)cc3C2=O)C(=O)N1 (stereo unspecified) | inactive
19 | Cc1ncsc1-c1ccc(CNC(=O)[C@@H]2C[C@@H](O)CN2C(=O)[C@H](NC(=O)CCCCCCCCCCC(=O)N2CCN(Cc3cccc(Nc4ncc5ccn(CCCNC(=O)C6CCC6)c5n4)c3)CC2)C(C)(C)C)cc1 | inactive
20 | Cc1ncsc1-c1ccc(CNC(=O)[C@H]2C[C@H](O)CN2C(=O)[C@@H](NC(=O)COCC(=O)N2CCN(Cc3cccc(Nc4ncc5ccn(CCCNC(=O)C6CCC6)c5n4)c3)CC2)C(C)(C)C)cc1 | inactive
21 | Cc1ncsc1-c1ccc(CNC(=O)[C@@H]2C[C@@H](O)CN2C(=O)[C@H](NC(=O)CCCCCCC(=O)N2CCN(Cc3cccc(Nc4ncc5ccn(CCCNC(=O)C6CCC6)c5n4)c3)CC2)C(C)(C)C)cc1 | inactive
22 | O=C1CCC(N2C(=O)c3ccc(OCCCCCC(=O)N4CCN(Cc5cccc(Nc6ncc7ccn(CCCNC(=O)C8CCC8)c7n6)c5)CC4)cc3C2=O)C(=O)N1 (stereo unspecified) | Active; Compound Exhibited Only Weak Degradation Compared To Control 3I
23 | O=C1CCC(N2C(=O)c3cccc(NCCOCCOCCC(=O)N4CCN(Cc5cccc(Nc6ncc7ccn(CCCNC(=O)C8CCC8)c7n6)c5)CC4)c3C2=O)C(=O)N1 (stereo unspecified) | inactive
24 | O=C1CCC(N2C(=O)c3ccc(OCCCCCCCC(=O)N4CCN(Cc5cccc(Nc6ncc7ccn(CCCNC(=O)C8CCC8)c7n6)c5)CC4)cc3C2=O)C(=O)N1 (stereo unspecified) | inactive
25 | Cc1ncsc1-c1ccc(CNC(=O)[C@@H]2C[C@@H](O)CN2C(=O)[C@H](NC(=O)CCC(=O)N2CCN(Cc3cccc(Nc4ncc5ccn(CCCNC(=O)C6CCC6)c5n4)c3)CC2)C(C)(C)C)cc1 | Active; Compound Exhibited Only Weak Degradation Compared To Control 3I
26 | O=C1CCC(N2C(=O)c3ccc(OCCCCCCCCCC(=O)N4CCN(Cc5cccc(Nc6ncc7ccn(CCCNC(=O)C8CCC8)c7n6)c5)CC4)cc3C2=O)C(=O)N1 (stereo unspecified) | inactive
27 | Cc1ncsc1-c1ccc(CNC(=O)[C@@H]2C[C@@H](O)CN2C(=O)[C@H](NC(=O)CCCCC(=O)N2CCN(Cc3cccc(Nc4ncc5ccn(CCCNC(=O)C6CCC6)c5n4)c3)CC2)C(C)(C)C)cc1 | inactive
28 | O=C1CCC(N2C(=O)c3cccc(NCCCCCC(=O)N4CCN(Cc5cccc(Nc6ncc7ccn(CCCNC(=O)C8CCC8)c7n6)c5)CC4)c3C2=O)C(=O)N1 (stereo unspecified) | inactive
29 | O=C1CCC(N2C(=O)c3cccc(NCCCCCCCC(=O)N4CCN(Cc5cccc(Nc6ncc7ccn(CCCNC(=O)C8CCC8)c7n6)c5)CC4)c3C2=O)C(=O)N1 (stereo unspecified) | inactive

What follows are compounds tested against T2, Serine/threonine-protein kinase TBK1 (Homo sapiens, UniProt Q9UHD2) (assay: Inhibition of TBK1-dependent SEAP reporter gene expression in LPS-stimulated human THP1-Blue ISG cells incubated for 24 hrs by QUANTI-Blue reagent based analysis). Details: not given.
T2 sequence (Q9UHD2 whole entry): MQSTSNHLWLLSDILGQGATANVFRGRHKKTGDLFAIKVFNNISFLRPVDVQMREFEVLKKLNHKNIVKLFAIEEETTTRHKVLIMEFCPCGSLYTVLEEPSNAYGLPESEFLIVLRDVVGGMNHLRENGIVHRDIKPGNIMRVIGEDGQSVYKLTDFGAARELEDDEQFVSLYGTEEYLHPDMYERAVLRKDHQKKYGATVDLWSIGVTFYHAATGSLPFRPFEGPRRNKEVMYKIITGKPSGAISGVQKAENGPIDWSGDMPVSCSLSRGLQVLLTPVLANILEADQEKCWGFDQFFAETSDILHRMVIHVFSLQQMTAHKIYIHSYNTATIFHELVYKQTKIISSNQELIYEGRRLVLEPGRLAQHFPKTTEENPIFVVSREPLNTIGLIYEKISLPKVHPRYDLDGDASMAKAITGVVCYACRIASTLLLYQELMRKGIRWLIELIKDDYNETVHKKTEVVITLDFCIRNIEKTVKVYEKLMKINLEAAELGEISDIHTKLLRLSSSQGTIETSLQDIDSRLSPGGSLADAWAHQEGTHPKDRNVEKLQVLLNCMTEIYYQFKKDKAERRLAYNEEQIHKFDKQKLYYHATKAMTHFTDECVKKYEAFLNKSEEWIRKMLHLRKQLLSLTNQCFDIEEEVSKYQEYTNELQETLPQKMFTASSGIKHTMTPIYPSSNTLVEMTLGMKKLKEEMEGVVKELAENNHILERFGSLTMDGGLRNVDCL
Type: cell-based

Row | SMILES | IC50 [nM]
30 | Cc1ncsc1-c1ccc(CNC(=O)[C@@H]2C[C@@H](O)CN2C(=O)[C@@H](NC(=O)COCCCOCCCCOCCCOc2ccc(Nc3ncc(Br)c(NCCCN(C)C(=O)C4CCC4)n3)cc2)C(C)(C)C)cc1 | 76.4
31 | CC(=O)N1CCN(Cc2cccc(Nc3ncc4ccn(CCCNC(=O)C5CCC5)c4n3)c2)CC1 | 228
